Laboratory results reported in the supplement of paper PMC10307832.

Experiments:
Assay in all cases: relative viability (nuclei count vs DMSO), 5 days (fraction); higher = more cells survive
COR-L23 = tested on: COR-L23
Summary of the method: (§1)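 Relative viability divides the nuclei count in treated wells by that in vehicle wells. Lung cancer cell lines were seeded in 1536-well plates, dosed by pin tool the next day, and fixed and stained after 5 days in one step with final 0.05% Triton X-100, 1% formaldehyde and 1 ug/ml Hoechst. Dosing was a single drug or a fixed anchor-drug dose plus five library-drug doses (not always all listed) in √10 steps, and values are medians of duplicate plates imaged at 4×.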

EMC-BAC-2 = tested on: EMC-BAC-2
Summary of the method: as §1

HARA = tested on: HARA
Summary of the method: as §1

NCI-H2405 = tested on: NCI-H2405
Summary of the method: as §1

UMC-11 = tested on: UMC-11
Summary of the method: as §1

ChaGo-K-1 = tested on: ChaGo-K-1
Summary of the method: as §1

SK-LU-1 = tested on: SK-LU-1
Summary of the method: as §1

HCC-78 = tested on: HCC-78
Summary of the method: as §1

NCI-H1793 = tested on: NCI-H1793
Summary of the method: as §1

A-427 = tested on: A-427
Summary of the method: as §1

NCI-H2228 = tested on: NCI-H2228
Summary of the method: as §1

NCI-H1944 = tested on: NCI-H1944
Summary of the method: as §1

NCI-H23 = tested on: NCI-H23
Summary of the method: as §1

HCC-15 = tested on: HCC-15
Summary of the method: as §1

HCC-366 = tested on: HCC-366
Summary of the method: as §1

NCI-H2023 = tested on: NCI-H2023
Summary of the method: as §1

NCI-H1734 = tested on: NCI-H1734
Summary of the method: as §1

LC-2-ad = tested on: LC-2-ad
Summary of the method: as §1

NCI-H2009 = tested on: NCI-H2009
Summary of the method: as §1

NCI-H2126 = tested on: NCI-H2126
Summary of the method: as §1

NCI-H1993 = tested on: NCI-H1993
Summary of the method: as §1

NCI-H838 = tested on: NCI-H838
Summary of the method: as §1

Work on `NC(=O)Nc1cc(-c2cccc(F)c2)sc1C(=O)N[C@H]1CCCNC1` [AZD7762] + Nc1nc2[nH]cc(CCc3ccc(C(=O)N[C@@H](CCC(=O)O)C(=O)O)cc3)c2c(=O)[nH]1 [Pemetrexed] (partner 0.2 µM) yielded a relative viability (COR-L23; first compound 0.01 µM) of 0.191, a relative viability (COR-L23; first compound 0.03162 µM) of 0.185 and a relative viability (COR-L23; first compound 0.1 µM) of 0.181. For the same compound, the relative viability (COR-L23; first compound 0.3162 µM) was 0.168, the relative viability (COR-L23; first compound 1 µM) was 0.131 and the relative viability (EMC-BAC-2; first compound 0.01 µM) was 0.457. For the same compound, the relative viability (EMC-BAC-2; first compound 0.03162 µM) was 0.397, the relative viability (EMC-BAC-2; first compound 0.1 µM) was 0.405 and the relative viability (EMC-BAC-2; first compound 0.3162 µM) was 0.35. For the same compound, the relative viability (EMC-BAC-2; first compound 1 µM) was 0.387, the relative viability (HARA; first compound 0.01 µM) was 0.23 and the relative viability (HARA; first compound 0.03162 µM) was 0.25. It also gave a relative viability (HARA; first compound 0.1 µM) of 0.198, a relative viability (HARA; first compound 0.3162 µM) of 0.16 and a relative viability (HARA; first compound 1 µM) of 0.164. The relative viability (NCI-H2405; first compound 0.01 µM) was 0.998, the relative viability (NCI-H2405; first compound 0.03162 µM) was 1.25 and the relative viability (NCI-H2405; first compound 0.1 µM) was 0.927. It also gave a relative viability (NCI-H2405; first compound 0.3162 µM) of 1, a relative viability (NCI-H2405; first compound 1 µM) of 0.466 and a relative viability (UMC-11; first compound 0.01 µM) of 0.833. The relative viability (UMC-11; first compound 0.03162 µM) was 0.797, the relative viability (UMC-11; first compound 0.1 µM) was 0.782 and the relative viability (UMC-11; first compound 0.3162 µM) was 0.495. It also gave a relative viability (UMC-11; first compound 1 µM) of 0.369, a relative viability (ChaGo-K-1; first compound 0.01 µM) of 0.26 and a relative viability (ChaGo-K-1; first compound 0.03162 µM) of 0.267. The relative viability (ChaGo-K-1; first compound 0.1 µM) was 0.259, the relative viability (ChaGo-K-1; first compound 0.3162 µM) was 0.243 and the relative viability (ChaGo-K-1; first compound 1 µM) was 0.256. The relative viability (SK-LU-1; first compound 0.01 µM) was 1.14, the relative viability (SK-LU-1; first compound 0.03162 µM) was 0.776 and the relative viability (SK-LU-1; first compound 0.1 µM) was 0.698. It also gave a relative viability (SK-LU-1; first compound 0.3162 µM) of 0.299, a relative viability (SK-LU-1; first compound 1 µM) of 0.238 and a relative viability (HCC-78; first compound 0.01 µM) of 0.927. It also gave a relative viability (HCC-78; first compound 0.03162 µM) of 0.903, a relative viability (HCC-78; first compound 0.1 µM) of 0.895 and a relative viability (HCC-78; first compound 0.3162 µM) of 0.895. The relative viability (HCC-78; first compound 1 µM) was 0.889, the relative viability (NCI-H1793; first compound 0.01 µM) was 0.983 and the relative viability (NCI-H1793; first compound 0.03162 µM) was 0.956. For the same compound, the relative viability (NCI-H1793; first compound 0.1 µM) was 0.954, the relative viability (NCI-H1793; first compound 0.3162 µM) was 0.811 and the relative viability (NCI-H1793; first compound 1 µM) was 0.562. For the same compound, the relative viability (A-427; first compound 0.01 µM) was 0.949, the relative viability (A-427; first compound 0.03162 µM) was 0.94 and the relative viability (A-427; first compound 0.1 µM) was 1.11. The relative viability (A-427; first compound 0.3162 µM) was 0.916, the relative viability (A-427; first compound 1 µM) was 0.374 and the relative viability (NCI-H2228; first compound 0.01 µM) was 0.279. It also gave a relative viability (NCI-H2228; first compound 0.03162 µM) of 0.328, a relative viability (NCI-H2228; first compound 0.1 µM) of 0.293 and a relative viability (NCI-H2228; first compound 0.3162 µM) of 0.299. It also gave a relative viability (NCI-H2228; first compound 1 µM) of 0.2, a relative viability (NCI-H1944; first compound 0.01 µM) of 0.694 and a relative viability (NCI-H1944; first compound 0.03162 µM) of 0.601. For the same compound, the relative viability (NCI-H1944; first compound 0.1 µM) was 0.54, the relative viability (NCI-H1944; first compound 0.3162 µM) was 0.28 and the relative viability (NCI-H1944; first compound 1 µM) was 0.188. It also gave a relative viability (NCI-H23; first compound 0.01 µM) of 0.722, a relative viability (NCI-H23; first compound 0.03162 µM) of 0.62 and a relative viability (NCI-H23; first compound 0.1 µM) of 0.514. The relative viability (NCI-H23; first compound 0.3162 µM) was 0.359, the relative viability (NCI-H23; first compound 1 µM) was 0.275 and the relative viability (HCC-15; first compound 0.01 µM) was 0.213. For the same compound, the relative viability (HCC-15; first compound 0.03162 µM) was 0.234, the relative viability (HCC-15; first compound 0.1 µM) was 0.232 and the relative viability (HCC-15; first compound 0.3162 µM) was 0.209. The relative viability (HCC-15; first compound 1 µM) was 0.187, the relative viability (HCC-366; first compound 0.01 µM) was 0.195 and the relative viability (HCC-366; first compound 0.03162 µM) was 0.11. The relative viability (HCC-366; first compound 0.1 µM) was 0.0981, the relative viability (HCC-366; first compound 0.3162 µM) was 0.0668 and the relative viability (HCC-366; first compound 1 µM) was 0.0716. For the same compound, the relative viability (NCI-H2023; first compound 0.01 µM) was 0.211, the relative viability (NCI-H2023; first compound 0.03162 µM) was 0.156 and the relative viability (NCI-H2023; first compound 0.1 µM) was 0.112. The relative viability (NCI-H2023; first compound 0.3162 µM) was 0.124, the relative viability (NCI-H2023; first compound 1 µM) was 0.0879 and the relative viability (NCI-H1734; first compound 0.01 µM) was 0.398. For the same compound, the relative viability (NCI-H1734; first compound 0.03162 µM) was 0.353, the relative viability (NCI-H1734; first compound 0.1 µM) was 0.334 and the relative viability (NCI-H1734; first compound 0.3162 µM) was 0.303. It also gave a relative viability (NCI-H1734; first compound 1 µM) of 0.28, a relative viability (LC-2-ad; first compound 0.01 µM) of 0.3 and a relative viability (LC-2-ad; first compound 0.03162 µM) of 0.277. The relative viability (LC-2-ad; first compound 0.1 µM) was 0.277, the relative viability (LC-2-ad; first compound 0.3162 µM) was 0.229 and the relative viability (LC-2-ad; first compound 1 µM) was 0.241. The relative viability (NCI-H2009; first compound 0.01 µM) was 1, the relative viability (NCI-H2009; first compound 0.03162 µM) was 1.02 and the relative viability (NCI-H2009; first compound 0.1 µM) was 1.03. For the same compound, the relative viability (NCI-H2009; first compound 0.3162 µM) was 0.888, the relative viability (NCI-H2009; first compound 1 µM) was 0.783 and the relative viability (NCI-H2126; first compound 0.01 µM) was 0.659. For the same compound, the relative viability (NCI-H2126; first compound 0.03162 µM) was 0.646, the relative viability (NCI-H2126; first compound 0.1 µM) was 0.553 and the relative viability (NCI-H2126; first compound 0.3162 µM) was 0.576. The relative viability (NCI-H2126; first compound 1 µM) was 0.365, the relative viability (NCI-H1993; first compound 0.01 µM) was 0.559 and the relative viability (NCI-H1993; first compound 0.03162 µM) was 0.487. The relative viability (NCI-H1993; first compound 0.1 µM) was 0.602, the relative viability (NCI-H1993; first compound 0.3162 µM) was 0.586 and the relative viability (NCI-H1993; first compound 1 µM) was 0.578. It also gave a relative viability (NCI-H838; first compound 0.01 µM) of 0.25, a relative viability (NCI-H838; first compound 0.03162 µM) of 0.192 and a relative viability (NCI-H838; first compound 0.1 µM) of 0.177. For the same compound, the relative viability (NCI-H838; first compound 0.3162 µM) was 0.177 and the relative viability (NCI-H838; first compound 1 µM) was 0.167.
